{"source": "patent US20260091097A1", "about": "“COMBINATION TREATMENT REGIMES FOR TREATING CANCER” (Barinthus Biotherapeutics North America, Inc., priority 2022, published 2026)", "assay_type_in_all_cases": "in vivo, mouse", "key": {"[1]": {"test_system": "neoAg-specific CD8+ T cells", "experiment": "Flow cytometry of tetramer+ CD8+ T cells after SNP vaccination", "conditions": "IV administration after SNP-SC prime, still with anti-tumor efficacy", "procedure": "For T cell tetramer analysis, cells were assessed for viability with LIVE/DEAD Fixable Blue Dead Cell Stain Kit (Invitrogen) in PBS containing 50 nM dasatinib (STEMCELL Technologies) for 30 min at room temperature. Samples were then washed and blocked with anti-CD16/CD32 (BD Biosciences). Cells were then stained with fluorescently conjugated tetramer in cell staining buffer (PBS and 2% FCS) containing 50 nM dasatinib to enhance staining. Cells were simultaneously stained with the following surface antibodies to: CD8 (clone 53-6.7), PD-1 (clone 29F.A12), Tim-3 (clone RMT3-23), CD44 (clone IM7), CD39 (clone Duha59), and NKG2A (clone 16A11) purchased from BioLegend and CD4 (clone RM4-4) purchased from BD Biosciences. After a 1-h incubation at 4° C., cells were washed twice in cell staining buffer, fixed and permeabilized using the FoxP3 transcription factor staining buffer set (eBioscience). […]\nTo assess whether there are differences in the magnitude of neoAg-specific CD8^+ T cells after SNP-SC or SNP-IV boost, whole blood was sampled on day 21, a week after the boost and measured the tetramer^+ population by flow cytometry (FIG. 1G). […]\nAs markers of exhaustion and antigen experience on CD8^+ T cells are important for improving the therapeutic effects of immune checkpoint blockade, the expression of PD-1, TIM-3 and NKG2A post vaccination were assessed. […]"}, "cDC1s": {"test_system": "cDC1s", "experiment": "Flow cytometry of DC numbers and maturation after vaccination", "conditions": "IV route; comparable to SNP-IV", "procedure": "For the mononuclear phagocyte uptake analysis, cells were assessed for viability with the LIVE/DEAD Fixable Blue Dead Cell Stain Kit for 10 min at room temperature. After FcR blocking, cells were stained for 20 minutes at room temperature with the following surface antibodies: NK1.1 (clone PK136), CD19 (clone 1D3), CD3 (clone 145-2C11), Ly6G (clone 1A8), CD45 (clone 30-F11), Siglec-H (clone 440c), CD86 (clone GL1), CD11c (clone L3), CD80 (clone 16-10A1), B220 (clone RA3-6B2), CD64 (clone X54-5/7.1), CD11b (clone MI/70) and Ly6C (clone AL-21) purchased from BD Biosciences, CCR7 (clone 4B12), MHC class II (I-A/I-E, clone M5/114.15.2), CD169 (clone 3D6.112) and XCR1 (clone ZET) purchased from BioLegend, and CD172a (clone P84) from Thermo Fisher Scientific. The stain was washed off and cells were then fixed in 0.5% PFA in PBS until they were acquired on an LSRFortessa X50 (BD Biosciences) using the FACSDiva software v8.0.1 (BD Biosciences).\nGiven the systemic distribution of vaccine after SNP-IV but not SNP-SC, the levels of pro-inflammatory cytokines in the sera of mice were assessed at 6 hours after vaccination (FIG. 3F). High levels of systemic IFNα and IL-12 were measured by ELISAs after SNP-IV, especially at the higher dose of 32 nmol that is used in the therapeutic studies, compared to SNP-SC (FIG. 3F). […]"}, "MC38 tumors": {"test_system": "MC38 tumors", "experiment": "Therapeutic MC38 tumor model, SNP-7/8a prime day 7 and boost day 14 together with anti-PD-L1", "conditions": "SNP-SC (Reps1) prime, IV boost 7 days later without tumor antigen", "procedure": "For each tumor implantation, a frozen cell aliquot was thawed and cultured in MC38 media at 37° C. and 5% CO2, passaged once and collected using trypsin EDTA (Gibco). Then, […] in sterile PBS per mouse were implanted subcutaneously on the right flank. Tumors were measured twice a week using digital calipers. Tumor volume was estimated using the formula: (tumor volume=short×short×long/2). Animals were killed when tumors surpassed 1,000 mm^3.\nMice were implanted with MC38 tumors on the subcutaneous flank and were treated on day 7 (prime) and day 14 (boost) with SNP-7/8a containing Reps1, an MC38 neoAg, together with anti-PD-L1 (FIG. 1A). […] To confirm and extend these findings in a different tumor model, mice were implanted with TC-1 tumors and treated with SNP-7/8a containing HPV E6 antigen.\nTo assess the requirement for antigen at the time of boost, mice were primed with SNP-SC containing Reps1, followed by SNP-IV containing an irrelevant antigen (FIG. 1E)."}}}
{"substance": "polyIC:LC", "values": [{"measurement": "CD8+ T cell responses compared to the other vaccinated groups", "setting": "[1]", "value": "ten-fold lower"}, {"measurement": "DC maturation in the spleen and tumor-draining LN", "setting": "cDC1s", "value": "able to induce DC maturation"}, {"measurement": "Tumor growth", "setting": "MC38 tumors", "value": "significantly mediate tumor regression and prolong survival"}]}
